Source: ChEMBL document CHEMBL3244383, “Antiinflammatory activity of 17-esters of 6alpha,9alpha-difluoro-21-deoxyprednisolone” (1977)

How the values were obtained:
Format in all cases: functional
[1] = species on record: Rattus norvegicus; assay: Antiexudative activity in rat assessed as inhibition of exudate formation in granuloma pouch at 0.002 umol compound injected into pouch on day 5 measured on day 11 relative to control
[2] = tested on: Homo sapiens; assay: Vasoconstrictive activity in human at 0.02 to 0.18 ug applied topically by paper-patch test relative to betamethasone 17-valerate
[3] = species on record: Rattus norvegicus; assay: Antiexudative activity in rat assessed as inhibition of exudate formation in granuloma pouch at 0.02 umol compound injected into pouch on day 5 measured on day 11 relative to control
[4] = tested on: Rattus norvegicus; assay: Antiexudative activity in rat assessed as inhibition of exudate formation in granuloma pouch at 0.02 umol, sc administered from day 2 to day 10 measured on day 11 relative to control
[5] = tested on: Rattus norvegicus; assay: Antiexudative activity in rat assessed as inhibition of exudate formation in granuloma pouch at 0.002 umol, sc administered from day 2 to day 10 measured on day 11 relative to control

Row | Structure (SMILES) | inhibition (INH) [1] | fold change (FC) [2] | inhibition (INH) [3] | inhibition (INH) [4] | inhibition (INH) [5]
1 | CC(=O)O[C@]1(C(C)=O)CC[C@H]2[C@@H]3C[C@H](F)C4=CC(=O)C=C[C@]4(C)[C@@]3(F)[C@@H](O)C[C@@]21C | 18% | 1.5 | 13% |  | 
2 | CCC(=O)O[C@]1(C(C)=O)CC[C@H]2[C@@H]3C[C@H](F)C4=CC(=O)C=C[C@]4(C)[C@@]3(F)[C@@H](O)C[C@@]21C | 47% | 2.5 | 67% |  | 
3 | CCCC(=O)O[C@]1(C(C)=O)CC[C@H]2[C@@H]3C[C@H](F)C4=CC(=O)C=C[C@]4(C)[C@@]3(F)[C@@H](O)C[C@@]21C | 60% | 2.5 | 81% |  | 
4 | CC(=O)[C@@]1(OC(=O)c2ccccc2)CC[C@H]2[C@@H]3C[C@H](F)C4=CC(=O)C=C[C@]4(C)[C@@]3(F)[C@@H](O)C[C@@]21C | 71% | <=1 | 90% | 35% | <5%
5 | CCC(=O)O[C@]1(C(=O)CO)CC[C@H]2[C@@H]3C[C@H](F)C4=CC(=O)C=C[C@]4(C)[C@@]3(F)[C@@H](O)C[C@@]21C | <5% |  | 41% |  | 
6 | C[C@]12C=CC(=O)C=C1[C@@H](F)C[C@H]1[C@@H]3CC[C@](OC(=O)c4ccccc4)(C(=O)CO)[C@@]3(C)C[C@H](O)[C@@]12F | 46% |  | 70% | 62% | 20%
